Measured values taken from US20250170224A1, “METHODS AND COMPOSITIONS FOR TREATING MICROGLIAL DYSFUNCTION AND IMPROVING METABOLIC DYSFUNCTION” (Ultimate Medicine AG, priority 2021, published 2025).

Experiments:
[1] = healthy subjects; ingested lactulose 5 grams, mannitol 1 gram; cited from earlier work
gut barrier / microglia = assay: Aged SPF mice (18 months old) treated orally every third day for 10 weeks with EA or IAP; format: in vivo, mouse (C57BL/6); details: for ATP levels in microglia / cellular ROS in microglia (CellROX): compared to vehicle-treated aged mice; for CML accumulation in the brain (LC-MS) / gut permeability (FITC-dextran 4 kDa translocation to the circulation): oral, every 3 days for 10 weeks
Protocol: (§1) Specific pathogen-free (SPF) and germ-free (GF) housed C57BL/6 mice were analyzed at 6-10 weeks of age (young-adult) and 96-104 weeks of age (aged). Mice of the aged group in the nontargeted metabolomics analysis were 17-18 months old. Except for nontargeted metabolomics and microbiota profiling, where only male mice were used, all groups included mice from both sexes. Mice were housed under a 12-hour light/12-hour dark cycle and temperatures of 18-23° C. with 40-60% humidity, with food and water given ad libitum. To avoid cage effects, mice from at least three different cages per experimental group were analyzed. For the treatment, young-adult mice (8 weeks old) were injected intraperitoneally or by oral gavage with CML (0.735 mg kg^−1; Iris Biotech), trimethylamine N-oxide (TMAO) (3.95 mg kg^−1; Sigma-Aldrich), sodium acetate (59 mg kg^−1; Sigma-Aldrich) and sodium propionate (4.61 mg kg^−1; Sigma-Aldrich) daily for 14 days. For modulation of CML in aged animals, 18-month-old SPF housed C57BL/6 mice were treated orally every third day for 10 weeks with vehicle (20% hydroxypropyl-p-cyclodextrin in 1× phosphate-buffered saline (PBS)), 10 mg kg^−1 ellagic acid (EA) or 3,000 U kg^−1 intestinal alkaline phosphatase (IAP). To assess in vivo intestinal permeability, tracer fluorescein isothiocyanate (FITC)-labeled dextran (4 kDa: Sigma-Aldrich) was used. Briefly, mice were deprived of food 4 hours before and both food and water 4 hours after oral gavage using 200 μl of 80 mg ml^−1 FITC-dextran. Blood was collected retro-orbitally after 4 hours and fluorescence intensity was measured on fluorescence plates using an excitation wavelength of 493 nm and an emission wavelength of 518 nm. To assess in vivo intestinal permeability to CML, mice were treated with […] CML (0.36 mM). Blood was collected retro-orbitally immediately before and 4 hours after treatment. CML translocated into the circulation was measured by liquid chromatography-mass spectrometry (LC-MS). All animal experiments were approved by the local administration in Germany (Regierungsprasidium Freiburg) and were performed in accordance with the respective national, federal, and institutional regulations and the guidelines of the Federation of European Laboratory Animal Science Associations.
Cell sorting for RT-qPCR and RNA sequencing (RNA-seq) was performed on a MoFlo Astrios (Beckman Coulter; FIG. 7a). Before surface staining, dead cells were excluded by using the Fixable Viability Dye eFluor 780 (1:1,000 dilution; Thermo Fisher Scientific) followed by incubation with Fc receptor blocking antibody CD16/CD32 (1:200 dilution, clone 2.4G2; BD Bioscience). The following antibodies were used for surface staining: anti-CD45 (1:200 dilution, clone 30-F11; Thermo Fisher Scientific); anti-CD11b (1:200 dilution, clone MI/70; Thermo Fisher Scientific). The following lineage antibodies were used (all at 1:300 dilution): anti-CD3 (clone 17A2; BioLegend); anti-CD19 (clone 6D5; BioLegend); anti-CD45R (clone RA3-6B2; BD Biosciences); Ly6C (clone AL-21; BD Biosciences); Ly6G (clone 1A8; BD Biosciences). To assess microglial cellular reactive oxidative species (ROS), the CellROX DeepRed Reagent ([…]; Thermo Fisher Scientific) was used. To assess mitochondrial activity, Tetramethylrhodamine, Methyl Ester, Perchlorate (50 nM; Thermo Fisher Scientific) and MitoTracker Green FM (20 nM; Thermo Fisher Scientific) were used. Dead cells were excluded by short incubation with DAPI before flow cytometry analysis with the FACSCanto II (BD Biosciences). Data were acquired with the FACSDiva v.6 software (Becton Dickinson). Postacquisition analysis was performed with FlowJo v.10 (FlowJo LLC).
To avoid the cellular stress of fluorescence-activated cell sorting (FACS), microglial cells were isolated using the magnetic-activated cell sorting (MACS) separation system (Miltenyi Biotec; FIG. 7b). […]

microglia = format: in vivo; details: young-adult mice, i.p. once per day for two weeks; for intracellular ROS production / oxidative stress in microglia: CellROX
Protocol: as §1, with “Mice” for “Specific pathogen-free (SPF) and germ-free (GF) housed C57BL/6 mice were analyzed at 6-10 weeks of age (young-adult) and 96-104 weeks of age (aged). Mice”, “For the treatment, young-adult mice (8 weeks old) were injected intraperitoneally or by oral gavage with CML (0.735 mg kg^−1; Iris Biotech), trimethylamine N-oxide (TMAO) (3.95 mg kg^−1; Sigma-Aldrich), sodium acetate (59 mg kg^−1; Sigma-Aldrich) and sodium propionate (4.61 mg kg^−1; Sigma-Aldrich) daily for 14 days.” left out
Mice were lethally anesthetized with ketamine (100 mg kg^−1 body weight) and xylazine (10 mg kg^−1 body weight) followed by perfusion with 1×PBS through the left heart chamber. For histology, brains were kept overnight in 4% paraformaldehyde (PFA). For flow cytometry and magnetic-activated cell sorting (MACS) beads cell sorting, brains were dissected, homogenized and filtered through a […] mesh. […] Myelin was removed from the top layer and the cell pellet was washed once with 1×PBS followed by antibody staining.
Brain specimens from the cortex were first fixed overnight in 3% glutaraldehyde at 4° C., washed with Sorensen buffer, and then transferred to 1% osmium tetroxide for 2 hours at room temperature. Next, samples were dehydrated by a graded series of ethanol (30-100%) followed by 100% propylene oxide, resin/propylene oxide (1:2 (v/v)) and resin/propylene oxide (2:1 (v/v)). Samples were embedded in resin via polymerization for 24 hours at 75° C. Then, 700-nm semithin sections were cut and stained with 2% toluidine blue to define the region of interest for further preparation of 70 nm ultrathin sections using an ultramicrotome (Leica Reichert Ultracut S) after contrasting the sections with uranyl acetate and lead citrate (Leica Reichert Ultrastainer). To assess the mitochondrial phenotype in microglia, images were acquired with a ×7,900 or ×46,000 magnification using a CM100 electron microscope (Philips).
Cell sorting for RT-qPCR and RNA sequencing (RNA-seq) was performed on a MoFlo Astrios (Beckman Coulter; FIG. 7a). Before surface staining, dead cells were excluded by using the Fixable Viability Dye eFluor 780 (1:1,000 dilution; Thermo Fisher Scientific) followed by incubation with Fc receptor blocking antibody CD16/CD32 (1:200 dilution, clone 2.4G2; BD Bioscience). […] To assess microglial cellular reactive oxidative species (ROS), the CellROX DeepRed Reagent ([…]; Thermo Fisher Scientific) was used. To assess mitochondrial activity, Tetramethylrhodamine, Methyl Ester, Perchlorate (50 nM; Thermo Fisher Scientific) and MitoTracker Green FM (20 nM; Thermo Fisher Scientific) were used.

OC[C@H]1O[C@@H](O[C@@H]2[C@@H](CO)OC(O)(CO)[C@H]2O)[C@H](O)[C@@H](O)[C@H]1O (mixture of isomers) [lactulose]
normal value of excretion in urine (percentage of ingested amount) [1]: about 0.35%

O=c1oc2c(O)c(O)cc3c(=O)oc4c(O)c(O)cc1c4c23 [EA, ellagic acid]
ATP levels in microglia (gut barrier / microglia): increased ATP levels
cellular ROS in microglia (CellROX) (gut barrier / microglia): significant reduction
CML accumulation in the brain (LC-MS) (gut barrier / microglia): reduced
gut permeability (FITC-dextran 4 kDa translocation to the circulation) (gut barrier / microglia): no direct effect

C[N+](C)(C)[O-] [TMAO, trimethylamine N-oxide]
metabolic function (metabolic/mitochondrial activity) of microglia (microglia): no effect
intracellular ROS production / oxidative stress in microglia (microglia): no effect

OC[C@@H](O)[C@@H](O)[C@H](O)[C@H](O)CO [mannitol]
normal value of excretion in urine (percentage of ingested amount) [1]: ~12.3%

CC(=O)[O-].[Na+] [sodium acetate]
metabolic function (metabolic/mitochondrial activity) of microglia (microglia): no effect
intracellular ROS production / oxidative stress in microglia (microglia): no effect

CCC(=O)[O-].[Na+] [sodium propionate]
metabolic function (metabolic/mitochondrial activity) of microglia (microglia): no effect
intracellular ROS production / oxidative stress in microglia (microglia): no effect

B1: IAP: intestinal alkaline phosphatase, an endogenous enhancer of the gut barrier function (exemplary CAS No. 9001-78-9 (calf)) (protein, UniProt P19111 20-506, looked up)
Intestinal-type alkaline …: LVPVEEEDPAFWNRQAAQALDVAKKLQPIQTAAKNVILFLGDGMGVPTVTATRILKGQMNGKLGPETPLAMDQFPYVALSKTYNVDRQVPDSAGTATAYLCGVKGNYRTIGVSAAARYNQCKTTRGNEVTSVMNRAKKAGKSVGVVTTTRVQHASPAGAYAHTVNRNWYSDADLPADAQMNGCQDIAAQLVNNMDIDVILGGGRKYMFPVGTPDPEYPDDASVNGVRKRKQNLVQAWQAKHQGAQYVWNRTALLQAADDSSVTHLMGLFEPADMKYNVQQDHTKDPTLQEMTEVALRVVSRNPRGFYLFVEGGRIDHGHHDDKAYMALTEAGMFDNAIAKANELTSELDTLILVTADHSHVFSFGGYTLRGTSIFGLAPSKALDSKSYTSILYGNGPGYALGGGSRPDVNDSTSEDPSYQQQAAVPQASETHGGEDVAVFARGPQAHLVHGVEEETFVAHIMAFAGCVEPYTDCNLPAPTTATSIPD
ATP levels in microglia (gut barrier / microglia): increased ATP levels
cellular ROS in microglia (CellROX) (gut barrier / microglia): significant reduction
CML accumulation in the brain (LC-MS) (gut barrier / microglia): reduced
gut permeability (FITC-dextran 4 kDa translocation to the circulation) (gut barrier / microglia): lower gut leakiness
